Experiments:
[1] = low solubility and low permeability; cited from earlier work
[2] = Dissolution study in simulated intestinal fluid (FaSSIF V2), Pion inForm instrument; type: physicochemical; details: FaSSIF V2 pH 6.5, 37° C.
Text: As described in US 2018/0113216, the oral bioavailability of olaparib is dependent on both the dissolution rate and overall solubility of the drug in the gastro-intestinal (GI) tract. US 2018/0113216 describes how olaparib has a propensity for efflux by P-gp at concentrations limiting its permeability and thus limiting its absorption from the GI tract. This efflux ratio is lowered as the concentration of drug in solution increases. Thus, to minimize this efflux issue and achieve optimal absorption and bioavailability it is essential to find a form of olaparib that has as high a dissolution rate as possible in the GI tract and that also maintains a high level of solubility over a sufficient period of time to allow the drug to be absorbed into the blood stream. […] The dissolution study was carried out using 50 mL simulated intestinal fluid (FaSSIF V2) at pH 6.5 (37° C.) using a quantity of each olaparib form equivalent to 25 mg olaparib. […] Detection and quantification of olaparib was performed by in-situ UV-spectroscopy using a fibre-optic probe, allowing instantaneous data collection from the point of sample introduction. UV absorption data was converted to mg/mL (±0.2 mg/mL) using a previously determined pH dependent molar extinction coefficients to quantitate the amount of dissolved drug.

[3] = Solid-state stability study under accelerated storage conditions (XRPD form change, HPLC purity); type: physicochemical; details: 7 days; for Purity: HPLC
Procedure: Bruker D8 X-Ray Powder Diffraction (XRPD) Characterization: X-ray powder diffraction patterns for the samples were acquired on a Bruker D8 diffractometer using Cu Ka radiation (40 kV, 40 mA) and a θ-2θ goniometer fitted with a Ge monochromator. The incident beam passes through a 2.0 mm divergence slit followed by a 0.2 mm anti-scatter slit and knife edge. The diffracted beam passes through an 8.0 mm receiving slit with 2.5° Soller slits followed by the Lynxeye Detector. The software used for data collection and analysis was Diffrac Plus XRD Commander and Diffrac Plus EVA respectively. Samples were run under ambient conditions over an angular range of 2° to 42° 2θ (using a step size of 0.05° 2θ and a step time of 0.5 seconds) as flat plate specimens using powder as received. The sample was prepared on a polished, zero-background (510) silicon wafer by gently pressing onto the flat surface or packed into a cut cavity. The sample was rotated in its own plane. Small D8 disc recess holders were used to prepare samples.
Chemical Purity Determination by HPLC: Purity analysis was performed on an Agilent HP1100/Infinity II 1260 series system equipped with a diode array detector and using Open LAB software.
A study was carried out to examine the physical stability of the olaparib hydroxybenzoic acid cocrystals with respect to solid form conversion or signs of decomposition over time under accelerated storage conditions. The 1:1 olaparib gentisic acid cocrystal, 2:1 olaparib gentisic acid cocrystal, 1:1 olaparib 2,4-dihydroxybenzoic acid cocrystal, 2:1 2,4-dihydroxybenzoic acid cocrystal, and the 2:1 olaparib 4-hydroxybenzoic acid cocrystal were separately stored at 40° C./75% relative humidity and 25° C./97% relative humidity for 7 days. After this time, all samples remained as white solids with no signs of deliquescence. Each sample was analysed by XRPD to observe any potential form changes and by HPLC to determine purity so as to determine any signs of decomposition.

[4] = Gravimetric Vapour Sorption (GVS) moisture sorption isotherm; type: physicochemical; details: for XRPD analysis of the sample post GVS (cocrystal structure): after GVS isotherm
Procedure: Gravimetric Vapour Sorption (GVS): Sorption isotherms were obtained using a SMS DVS Intrinsic moisture sorption analyzer, controlled by DVS Intrinsic Control software. The sample temperature was maintained at 25° C. by the instrument controls. The humidity was controlled by mixing streams of dry and wet nitrogen, with a total flow rate of 200 ml/min. The relative humidity was measured by a calibrated Rotronic probe (dynamic range of 1.0-100% RH), located near the sample. The weight change, (mass relaxation) of the sample as a function of % RH was constantly monitored by a microbalance (accuracy ±0.005 mg).
Typically, 5-30 mg of sample was placed in a tared mesh stainless steel basket under ambient conditions. The sample was loaded and unloaded at 40% RH and 25° C. (typical room conditions). A moisture sorption isotherm was performed as outlined in Table 1 (2 scans per complete cycle). The standard isotherm was performed at 25° C. at 10% RH intervals over a 0-90% RH range. Typically, a double cycle (4 scans) was carried out. Data analysis was carried out within Microsoft Excel using the DVS Analysis Suite. The sample was recovered after completion of the isotherm and re-analyzed by XRPD.

[5] = across the 0-90% relative humidity range at 25° C. under nitrogen

| Compound | BCS class [1] | amount of olaparib dissolved after particle size reduction ([2]; any one timepoint over a 30-minute time period, compared with form A as supplied) | rate of dissolution after particle size reduction ([2]; compared with olaparib form A as supplied) | XRPD Analysis ([3]; 25° C./97% RH) | Purity ([3]; 25° C./97% RH) [%] | XRPD Analysis ([3]; 40° C./75 RH) | Purity ([3]; 40° C./75 RH) [%] | reversibly absorbed moisture (GVS) [4, 5] [% w/w] | XRPD analysis of the sample post GVS (cocrystal structure) [4] | reversibly absorbed moisture (GVS) ([4]; between 0 and 5% RH, 25° C.) [% w/w] |
| --- | --- | --- | --- | --- | --- | --- | --- | --- | --- | --- |
| O=C(c1cc(Cc2n[nH]c(=O)c3ccccc23)ccc1F)N1CCN(C(=O)C2CC2)CC1 [olaparib, 4-[(3-{[4-(cyclopropylcarbonyl)piperazin-1-yl]carbonyl}-4-fluorophenyl)methyl]phthalazin-1(2H)-one] | class 4 |  |  |  |  |  |  |  |  |  |
| O=C(c1cc(Cc2n[nH]c(=O)c3ccccc23)ccc1F)N1CCN(C(=O)C2CC2)CC1 [milled olaparib form A] |  | overall decrease in the amount of olaparib dissolved | lower rate of dissolution |  |  |  |  |  |  |  |
| O=C(O)c1ccc(O)cc1O.O=C(c1cc(Cc2n[nH]c(=O)c3ccccc23)ccc1F)N1CCN(C(=O)C2CC2)CC1 |  |  |  | No change | 99.22 | No change | 99.43 |  |  |  |
| O=C(O)c1ccc(O)cc1O.O=C(c1cc(Cc2n[nH]c(=O)c3ccccc23)ccc1F)N1CCN(C(=O)C2CC2)CC1.O=C(c1cc(Cc2n[nH]c(=O)c3ccccc23)ccc1F)N1CCN(C(=O)C2CC2)CC1 |  |  |  | No change | 99.64 | No change | 99.45 | 4.5 | unchanged | 2.5 |
| O=C(O)c1cc(O)ccc1O.O=C(c1cc(Cc2n[nH]c(=O)c3ccccc23)ccc1F)N1CCN(C(=O)C2CC2)CC1.O=C(c1cc(Cc2n[nH]c(=O)c3ccccc23)ccc1F)N1CCN(C(=O)C2CC2)CC1 [2:1 olaparib gentisic acid cocrystal] |  |  |  | No change | 99.64 | No change | 99.59 | 3.4 | unchanged | 1.6 |
| O=C(O)c1ccc(O)cc1.O=C(c1cc(Cc2n[nH]c(=O)c3ccccc23)ccc1F)N1CCN(C(=O)C2CC2)CC1.O=C(c1cc(Cc2n[nH]c(=O)c3ccccc23)ccc1F)N1CCN(C(=O)C2CC2)CC1 |  |  |  | No change | 99.69 | No change | 99.70 | 3.4 | unchanged | 1.5 |
| O=C(O)c1cc(O)ccc1O.O=C(c1cc(Cc2n[nH]c(=O)c3ccccc23)ccc1F)N1CCN(C(=O)C2CC2)CC1 [1:1 olaparib gentisic acid cocrystal] |  |  |  | No change | 99.79 | No change | 99.70 |  |  |  |
